Source: PubChem BioAssay (NCI)
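Five concentrations, 48 hours, 96-well plates. At the TGI there is no net growth.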

Assays:
Experiment in all cases: DTP human tumour cell line panel, 48 h
SK-MEL-5 melanoma = test system: SK-MEL-5 melanoma
786-0 renal = test system: 786-0 renal
MALME-3M melanoma = test system: MALME-3M melanoma
SN12C renal = test system: SN12C renal
NCI-H23 lung = test system: NCI-H23 lung
CAKI-1 renal = test system: CAKI-1 renal
U251 CNS = test system: U251 CNS
SR leukemia = test system: SR leukemia
NCI-H522 lung = test system: NCI-H522 lung
BT-549 breast = test system: BT-549 breast
SNB-19 CNS = test system: SNB-19 CNS
MCF7 breast = test system: MCF7 breast
HT29 colon = test system: HT29 colon
HCT-15 colon = test system: HCT-15 colon
PC-3 prostate = test system: PC-3 prostate
OVCAR-5 ovarian = test system: OVCAR-5 ovarian
SK-OV-3 ovarian = test system: SK-OV-3 ovarian
HOP-62 NSCLC = test system: HOP-62 NSCLC
MDA-MB-435 = test system: MDA-MB-435
HCT-116 colon = test system: HCT-116 colon
RXF 393 renal = test system: RXF 393 renal
A549 NSCLC = test system: A549 NSCLC
M14 melanoma = test system: M14 melanoma
EKVX NSCLC = test system: EKVX NSCLC
SK-MEL-28 melanoma = test system: SK-MEL-28 melanoma
MDA-N = test system: MDA-N
SNB-75 CNS = test system: SNB-75 CNS
SW-620 colon = test system: SW-620 colon
OVCAR-4 ovarian = test system: OVCAR-4 ovarian
T-47D breast = test system: T-47D breast
NCI-H460 lung = test system: NCI-H460 lung
HS 578T breast = test system: HS 578T breast
SF-268 CNS = test system: SF-268 CNS
MOLT-4 leukemia = test system: MOLT-4 leukemia
HCC-2998 colon = test system: HCC-2998 colon
NCI/ADR-RES ovarian = test system: NCI/ADR-RES ovarian
A498 renal = test system: A498 renal
HL-60(TB) leukemia = test system: HL-60(TB) leukemia
ACHN renal = test system: ACHN renal
SK-MEL-2 melanoma = test system: SK-MEL-2 melanoma
HOP-92 NSCLC = test system: HOP-92 NSCLC
NCI-H226 lung = test system: NCI-H226 lung
UO-31 renal = test system: UO-31 renal
OVCAR-8 ovarian = test system: OVCAR-8 ovarian
LOX IMVI melanoma = test system: LOX IMVI melanoma
TK-10 renal = test system: TK-10 renal
OVCAR-3 ovarian = test system: OVCAR-3 ovarian
SF-539 CNS = test system: SF-539 CNS
SF-295 CNS = test system: SF-295 CNS
RPMI-8226 leukemia = test system: RPMI-8226 leukemia
DU-145 prostate = test system: DU-145 prostate
UACC-257 melanoma = test system: UACC-257 melanoma
K-562 leukemia = test system: K-562 leukemia
KM12 colon = test system: KM12 colon
CCRF-CEM leukemia = test system: CCRF-CEM leukemia
IGROV1 ovarian = test system: IGROV1 ovarian
MDA-MB-231 breast = test system: MDA-MB-231 breast
UACC-62 melanoma = test system: UACC-62 melanoma
COLO 205 colon = test system: COLO 205 colon

O=C(N/N=C\c1cccc2ccccc12)Nc1ccc([N+](=O)[O-])cc1
TGI (SK-MEL-5 melanoma): > 87.2 µM | TGI (786-0 renal): > 37.8 µM | TGI (MALME-3M melanoma): > 69.4 µM | TGI (SN12C renal): > 73 µM | TGI (NCI-H23 lung): > 60.2 µM | TGI (CAKI-1 renal): > 100 µM | TGI (U251 CNS): > 100 µM | TGI (SR leukemia): > 100 µM | TGI (NCI-H522 lung): > 53.9 µM | TGI (BT-549 breast): > 66.4 µM | TGI (SNB-19 CNS): > 100 µM | TGI (MCF7 breast): > 100 µM | TGI (HT29 colon): > 100 µM | TGI (HCT-15 colon): > 100 µM | TGI (PC-3 prostate): > 70.5 µM | TGI (OVCAR-5 ovarian): > 71 µM | TGI (SK-OV-3 ovarian): 97.2 µM | TGI (HOP-62 NSCLC): 59.2 µM | TGI (MDA-MB-435): > 100 µM | TGI (HCT-116 colon): > 53.7 µM | TGI (RXF 393 renal): > 42.6 µM | TGI (A549 NSCLC): > 100 µM | TGI (M14 melanoma): > 100 µM | TGI (EKVX NSCLC): > 100 µM | TGI (SK-MEL-28 melanoma): > 100 µM | TGI (MDA-N): > 89 µM | TGI (SNB-75 CNS): > 100 µM | TGI (SW-620 colon): > 100 µM | TGI (OVCAR-4 ovarian): > 71.6 µM | TGI (T-47D breast): > 41.4 µM | TGI (NCI-H460 lung): > 76.6 µM | TGI (HS 578T breast): > 100 µM | TGI (SF-268 CNS): > 88.9 µM | TGI (MOLT-4 leukemia): > 100 µM | TGI (HCC-2998 colon): > 70.3 µM | TGI (NCI/ADR-RES ovarian): > 71.4 µM | TGI (A498 renal): > 100 µM | TGI (HL-60(TB) leukemia): > 100 µM | TGI (ACHN renal): > 72.7 µM | TGI (SK-MEL-2 melanoma): > 68.7 µM | TGI (HOP-92 NSCLC): 26.2 µM | TGI (NCI-H226 lung): > 100 µM | TGI (UO-31 renal): > 61.8 µM | TGI (OVCAR-8 ovarian): > 53.5 µM | TGI (LOX IMVI melanoma): > 100 µM | TGI (TK-10 renal): > 80.9 µM | TGI (OVCAR-3 ovarian): 38.3 µM | TGI (SF-539 CNS): > 100 µM | TGI (SF-295 CNS): > 100 µM | TGI (RPMI-8226 leukemia): > 100 µM | TGI (DU-145 prostate): > 60.7 µM | TGI (UACC-257 melanoma): > 100 µM | TGI (K-562 leukemia): > 100 µM | TGI (KM12 colon): > 100 µM | TGI (CCRF-CEM leukemia): > 100 µM | TGI (IGROV1 ovarian): > 100 µM | TGI (MDA-MB-231 breast): > 100 µM | TGI (UACC-62 melanoma): > 68.5 µM | TGI (COLO 205 colon): > 60.7 µM

CCc1nnc(-n2c(C)nc3cc(Cl)ccc3c2=O)s1
TGI (SK-MEL-5 melanoma): 65.9 µM | TGI (786-0 renal): 81.6 µM | TGI (MALME-3M melanoma): 93.1 µM | TGI (SN12C renal): > 100 µM | TGI (NCI-H23 lung): > 100 µM | TGI (CAKI-1 renal): > 100 µM | TGI (U251 CNS): > 100 µM | TGI (SR leukemia): > 100 µM | TGI (NCI-H522 lung): 75.4 µM | TGI (BT-549 breast): > 100 µM | TGI (SNB-19 CNS): > 100 µM | TGI (MCF7 breast): > 100 µM | TGI (HT29 colon): > 100 µM | TGI (HCT-15 colon): > 100 µM | TGI (PC-3 prostate): > 100 µM | TGI (OVCAR-5 ovarian): > 100 µM | TGI (SK-OV-3 ovarian): > 100 µM | TGI (HOP-62 NSCLC): > 100 µM | TGI (MDA-MB-435): > 100 µM | TGI (HCT-116 colon): > 100 µM | TGI (RXF 393 renal): > 100 µM | TGI (A549 NSCLC): > 100 µM | TGI (M14 melanoma): > 100 µM | TGI (EKVX NSCLC): > 100 µM | TGI (SK-MEL-28 melanoma): > 100 µM | TGI (MDA-N): 49.1 µM | TGI (SNB-75 CNS): 92.8 µM | TGI (SW-620 colon): > 100 µM | TGI (OVCAR-4 ovarian): > 100 µM | TGI (T-47D breast): > 100 µM | TGI (NCI-H460 lung): > 100 µM | TGI (HS 578T breast): > 100 µM | TGI (SF-268 CNS): > 100 µM | TGI (MOLT-4 leukemia): > 100 µM | TGI (HCC-2998 colon): > 100 µM | TGI (NCI/ADR-RES ovarian): > 100 µM | TGI (A498 renal): > 100 µM | TGI (HL-60(TB) leukemia): > 100 µM | TGI (ACHN renal): > 100 µM | TGI (HOP-92 NSCLC): 99.2 µM | TGI (NCI-H226 lung): > 100 µM | TGI (UO-31 renal): > 100 µM | TGI (OVCAR-8 ovarian): > 100 µM | TGI (LOX IMVI melanoma): > 100 µM | TGI (TK-10 renal): > 100 µM | TGI (OVCAR-3 ovarian): 43 µM | TGI (SF-295 CNS): > 100 µM | TGI (DU-145 prostate): > 100 µM | TGI (UACC-257 melanoma): > 100 µM | TGI (K-562 leukemia): > 100 µM | TGI (KM12 colon): > 100 µM | TGI (CCRF-CEM leukemia): 56.7 µM | TGI (IGROV1 ovarian): > 100 µM | TGI (MDA-MB-231 breast): > 100 µM | TGI (UACC-62 melanoma): 61.7 µM | TGI (COLO 205 colon): > 100 µM
